Reference: ChEMBL document CHEMBL3600327, “Synthesis of a novel series of fluoroarene derivatives of artemisinin as potent antifungal and anticancer agent” (Bioorg Med Chem Lett, 2015)

Assays:
[1] = tested on: Fusarium oxysporum; experiment: Antifungal activity against Fusarium oxysporum assessed as inhibition of mycelia growth at 1000 ppm after 1 week by filter paper method relative to control; assay type: functional; conditions: 168 h, read-out: GI
[2] = tested on: Fusarium oxysporum; experiment: Antifungal activity against Fusarium oxysporum assessed as inhibition of mycelia growth at 600 ppm after 1 week by filter paper method relative to control; assay type: functional; conditions: 168 h, read-out: GI
[3] = tested on: Fusarium oxysporum; experiment: Antifungal activity against Fusarium oxysporum assessed as inhibition of mycelia growth at 400 ppm after 1 week by filter paper method relative to control; assay type: functional; conditions: 168 h, read-out: GI
[4] = tested on: Fusarium oxysporum; experiment: Antifungal activity against Fusarium oxysporum assessed as inhibition of mycelia growth at 200 ppm after 1 week by filter paper method relative to control; assay type: functional; conditions: 168 h, read-out: GI
[5] = tested on: Fusarium oxysporum; experiment: Antifungal activity against Fusarium oxysporum assessed as inhibition of mycelia growth at 800 ppm after 1 week by filter paper method relative to control; assay type: functional; conditions: 168 h, read-out: GI
[6] = tested on: HeLa; experiment: Cytotoxicity against human HeLa cells measured at 48 hrs by MTT assay; assay type: functional, cell-based

Compound | inhibition of growth at 1000 ppm [1] [%] | inhibition of growth at 600 ppm [2] [%] | inhibition of growth at 400 ppm [3] [%] | inhibition of growth at 200 ppm [4] [%] | inhibition of growth at 800 ppm [5] [%] | IC50 [6] [µM]
C[C@H]1[C@@H](OCCC#Cc2ccc(-c3cccc(C(F)(F)F)c3)cc2)O[C@@H]2O[C@@]3(C)CC[C@H]4[C@H](C)CC[C@@H]1[C@@]24OO3 | 70.2 | 67.6 | 66.5 | 65.6 | 69 | –
C[C@@H]1CC[C@H]2[C@@H](C)C(=O)O[C@@H]3O[C@@]4(C)CC[C@@H]1[C@]32OO4 [ARTEMISININ] | 78.5 | 76 | 75.5 | 72 | 77.2 | 493
C[C@H]1[C@@H](OCCC#Cc2ccc(-c3ccc(F)cc3)s2)O[C@@H]2O[C@@]3(C)CC[C@H]4[C@H](C)CC[C@@H]1[C@@]24OO3 | 71 | 68 | 66.9 | 66.4 | 69.9 | 36.6
C[C@H]1[C@@H](OCC#Cc2ccc(F)cc2)O[C@@H]2O[C@@]3(C)CC[C@H]4[C@H](C)CC[C@@H]1[C@@]24OO3 | 59 | 56 | 54.4 | 53.5 | 57.6 | 26.3
C[C@H]1[C@@H](OCCC#Cc2cccc(-c3ccc(F)cc3)c2)O[C@@H]2O[C@@]3(C)CC[C@H]4[C@H](C)CC[C@@H]1[C@@]24OO3 | 69.8 | 66.4 | 65.2 | 64 | 68 | 112
C[C@H]1[C@@H](OCC#Cc2ccccc2F)O[C@@H]2O[C@@]3(C)CC[C@H]4[C@H](C)CC[C@@H]1[C@@]24OO3 | 57.6 | 55.2 | 54.2 | 53.6 | 56.8 | 139
C[C@H]1[C@@H](OCCC#Cc2ccc(-c3ccc(F)cc3)cc2)O[C@@H]2O[C@@]3(C)CC[C@H]4[C@H](C)CC[C@@H]1[C@@]24OO3 | 72.8 | 70.2 | 67.9 | 67 | 71 | 13.1
C[C@H]1[C@@H](OCC#Cc2cccc(F)c2)O[C@@H]2O[C@@]3(C)CC[C@H]4[C@H](C)CC[C@@H]1[C@@]24OO3 | 65.2 | 62 | 61.8 | 60 | 64 | 14
C#CCO[C@H]1O[C@@H]2O[C@@]3(C)CC[C@H]4[C@H](C)CC[C@@H]([C@H]1C)[C@@]24OO3 | 72 | 68.8 | 66.4 | 64.8 | 70.2 | –
C[C@H]1[C@@H](OCCC#Cc2ccc(F)nc2)O[C@@H]2O[C@@]3(C)CC[C@H]4[C@H](C)CC[C@@H]1[C@@]24OO3 | 67.8 | 65 | 63.9 | 62.4 | 66.4 | 20.9
C[C@H]1[C@@H](OCC#Cc2ccc(F)nc2)O[C@@H]2O[C@@]3(C)CC[C@H]4[C@H](C)CC[C@@H]1[C@@]24OO3 | 63.8 | 61 | 58.4 | 56.4 | 62.5 | –
C#CCCO[C@H]1O[C@@H]2O[C@@]3(C)CC[C@H]4[C@H](C)CC[C@@H]([C@H]1C)[C@@]24OO3 | 77.6 | 75.4 | 73.2 | 70 | 76.8 | –
